Data as given in US7714014B2, “Targeting GLI proteins in human cancer by small molecules” (The Regents of the University of California, priority 2005, dated 2010).
“Also recorded” adds a separate entry of the source.

Tests used:
[1] = system: LOX (melanoma); experiment: Apoptosis analysis (Annexin V FITC, flow cytometry); assay type: cell-based, human; conditions: 3 days
Protocol: Apoptosis was analyzed by using an Annexin V FITC Apoptosis Detection Kit (Biosource, Camarillo, Calif.), according to the manufacturer's protocol. After treatment with different small molecule compounds at various concentrations for about 3 days, cells were harvested by trypsinization, stained and immediately analyzed by flow cytometry (FACScan; Decton Dickinson, Franklin Lake, N.J.). Early apoptotic cells with exposed phosphatidylserine but intact cell membranes will bind to Annexin V-FITC, but not propidium iodide (PI). Cells in necrotic or late apoptotic stages will be labeled with both Annexin V-FITC and PI. “% apoptotic cells” or “% apoptosis” refers to the combined early and late apoptotic cells.
The cell killing of LOX cells by treatment with small molecule compounds FN1-5 and FN1-8 was analyzed in greater detail using various concentrations of these two compounds and flow cytometry. […] (Tables 2 and 3).

[2] = system: human prostate cancer cell line LnCAP; experiment: Cell survival assay (crystal violet); assay type: cell-based; conditions: FN1-8 at 50 μM, FN1-5 30 and 50 μM
Protocol: Typically, the small molecule compounds of the present invention were dissolved in DMSO at a concentration of 30 mM. The small molecule compounds were then tested under cell culture conditions at different concentrations ranging from 0, 10, 30, 50, to 100 uM. To determine cell survival after treatment, the cells were incubated with the small molecule compounds in 6-well plates for about 3 days. After removal of the cell culture medium, 1-ml of 0.5% crystal violet solution (prepared in 20% ethanol and 20% methanol) was added to stain the cells for 5 min. Then the crystal violet solution was rinsed clean with tap water. Cell survival was estimated based on the density of crystal stained plates.
The cell-based cytotoxicity assay described herein was used to determine the effect of small molecule compounds FN1-5 and FN1-8 on the human prostate cancer cell line LnCAP. Viability of LnCAP cells was analyzed after treatment with 30 and 50 μM FN1-5 and after treatment with 10, 30, and 50 μM FN1-8.

[3] = system: Hedgehog (Hh) signaling pathway (Ptch1, Gli1) in NSCLC cell lines H460 and A549; experiment: Semi-quantitative RT-PCR of Hedgehog pathway genes; assay type: cell-based, human; conditions: for expression of Hh pathway key components and direct target genes (Ptch1, Gli1): 30 μM, 2 days, data not shown
Protocol: Total RNA from cell lines or tissue samples was isolated using Qiagen RNeasy Mini Kit (Valencia, Calif.). RT-PCR was performed in GeneAmp PCR system 2700 (Applied Biosystems, Foster City, Calif.) using One-step RT-PCR Kit from Invitrogen Life Technologies (Carlsbad, Calif.). Primers for RT-PCR were obtained from Operon Technologies Inc. (Alameda, Calif.). Primer sequences for amplifying different genes in Hedgehog and Wnt signaling pathways are listed in the table below (Table 1; F, forward primer; R, reverse primer). The expected size of the PCR product is indicated for each primer pair. GAPDH was used as internal control.
To further examine the mechanism of action of the small molecule compounds of the present invention, the effect of compounds FN1-5 and FN1-8 on the Hedgehog (Hh) signaling pathway was examined in NSCLC cell lines H460 and A549. H460 and A549 cells were incubated with 30 μM of each compound (FN1-5 or FN1-8) for 2 days before isolation of total RNA that was used for semi-quantitative RT-PCR analysis. […] GAPDH served as a control.

[4] = system: human SOCS3 promoter in NSCLC cell line A549; experiment: SOCS3 promoter-luciferase reporter assay; assay type: cell-based; conditions: A549, 30 μM, 18-24 hours
Protocol: One day before transfection, cells (1×10^5) were plated in 12-well plates with growth medium without antibiotics. When cells reached 80-90% of confluence they were co-transfected using 0.5 μg of each promoter construct in pGL3Basic vector and 0.025 μg pRL-TK Vector (Promega; Madison, Wis.) containing Renilla Luciferase as an internal control for the transformation efficiency. Lipofectamine 2000™ (Invitrogen Life Technologies) was used to mediate transfection for about 6 hours. Then the medium was replaced with fresh medium containing various small molecule compounds at a concentration of 30 μM, and the resulting cells were cultured for an additional 18-24 hours and subjected to luciferase assay. Briefly, cells were lysed in a lysis buffer and Firefly and Renilla Luciferase activities in cells of each well, were measured using Dual-Luciferase Assay System (Promega) and an illuminometer. The measured luciferase activities were normalized to pRL-TK Vector activity and were given relative to the basal activity of empty pGL3-Basic Vector, which was set to unity. The data shown represent mean values (±S.D.). All measurements were performed in triplicate and repeated in at least three independent experiments. The human Wnt-2 promoter-luciferase construct, the human SOCS3 promoter-Luciferase construct and the human Gremlin promoter-luciferase construct were cloned and characterized in the laboratory of Dr. Jablons at the University of California, San Francisco (San Francisco, Calif.; He et al., Biochem Biophy Res Comm, 2003; and unpublished data). The 6GLI-TKO-luciferase construct (containing 6 repeats of consensus GLI DNA binding sequence) was kindly provided by Dr. Matthias Hebrok's laboratory at the University of California, San Francisco (San Francisco, Calif.).
As a third specificity test for the small molecule compounds of the present invention, the ability of these compounds to regulate the expression of genes that are not down-stream targets of the Gli activation was analyzed. SOCS3, an inhibitor and down-stream target gene of JAK/STAT pathway was chosen for this experiment. Expression of SOCS3 is not under control of Gli and/or Wnt activation. Furthermore, no GLI and TCF binding sites were found in the human SOCS3 promoter cloned in the laboratory of Dr. Jablons (University of California, San Francisco; data not shown). Thus, SOCS3 promoter-luciferase reporter activity was measured after the treatment of the NSCLC cell line A549 with small molecule compounds FN1-5, FN1-7, FN1-8, and FN1-9U.

SMILES | % of apoptotic cells ([1]; 10 μM) [%] | % of apoptotic cells ([1]; 30 μM) [%] | % of apoptotic cells ([1]; 50 μM) [%] | cell killing [2] | expression of Hh pathway key components and direct target genes (Ptch1, Gli1) [3] | SOCS3 promoter activity [4] | inhibitory effect on Hh and Wnt pathways compared with FN1-5 [3]
O=C(NCCCCCO)C1C(c2ccccc2)=NN(c2ccccc2)C1c1ccccc1 (stereo not shown) [FN1-5, N-(5-Hydroxypentyl)-1,3,5-triphenyl-4,5-dihydro-pyrazole-4-carboxyamide] | 14.0 | 16.6 | 58.1 | much lesser cell killing effect | downregulated | inactive; also recorded: do not regulate SOCS3 promoter activity | 
O=C(NCCc1ccc(O)cc1)C1C(c2ccccc2)=NN(c2ccccc2)C1c1ccccc1 (stereo not shown) [FN1-8, N-(2-(4-Hydroxyphenyl)ethyl)-1,3,5-triphenyl-4,5-dihydro-pyrazole-4-carboxyamide] | 16.7 | 19.0 | 78.9 | dramatic cell killing | downregulated | inactive; also recorded: do not regulate SOCS3 promoter activity | more inhibitory effect
